Blank lines part the entries; values can stand above or below the molecule they belong to.
Experiments:
[1] = target: T1, Hepatocyte nuclear factor 4-alpha (Homo sapiens) (UniProt P41235); assay: Selectivity interaction (Reporter gene assay) EUB0001173a HNF4A; parameters: recommended concentration 1 uM
T1 sequence (whole entry): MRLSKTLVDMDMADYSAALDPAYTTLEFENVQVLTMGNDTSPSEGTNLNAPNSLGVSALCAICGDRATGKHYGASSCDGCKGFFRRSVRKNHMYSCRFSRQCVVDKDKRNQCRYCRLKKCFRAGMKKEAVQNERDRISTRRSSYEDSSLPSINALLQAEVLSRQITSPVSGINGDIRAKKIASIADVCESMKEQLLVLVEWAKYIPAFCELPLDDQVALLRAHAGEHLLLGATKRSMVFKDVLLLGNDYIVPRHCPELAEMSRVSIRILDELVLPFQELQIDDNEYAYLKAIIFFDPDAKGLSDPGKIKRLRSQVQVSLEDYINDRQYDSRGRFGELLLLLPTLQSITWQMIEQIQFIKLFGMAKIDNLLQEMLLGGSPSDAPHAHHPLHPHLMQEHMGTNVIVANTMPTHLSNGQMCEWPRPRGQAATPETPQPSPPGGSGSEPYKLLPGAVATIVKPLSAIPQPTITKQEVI

[2] = target: T2, Retinoic acid receptor RXR-alpha (Homo sapiens) (UniProt P19793); assay: Selectivity interaction (Reporter gene assay) EUB0001173a RXRA; parameters: recommended concentration 1 uM
T2 sequence (whole entry): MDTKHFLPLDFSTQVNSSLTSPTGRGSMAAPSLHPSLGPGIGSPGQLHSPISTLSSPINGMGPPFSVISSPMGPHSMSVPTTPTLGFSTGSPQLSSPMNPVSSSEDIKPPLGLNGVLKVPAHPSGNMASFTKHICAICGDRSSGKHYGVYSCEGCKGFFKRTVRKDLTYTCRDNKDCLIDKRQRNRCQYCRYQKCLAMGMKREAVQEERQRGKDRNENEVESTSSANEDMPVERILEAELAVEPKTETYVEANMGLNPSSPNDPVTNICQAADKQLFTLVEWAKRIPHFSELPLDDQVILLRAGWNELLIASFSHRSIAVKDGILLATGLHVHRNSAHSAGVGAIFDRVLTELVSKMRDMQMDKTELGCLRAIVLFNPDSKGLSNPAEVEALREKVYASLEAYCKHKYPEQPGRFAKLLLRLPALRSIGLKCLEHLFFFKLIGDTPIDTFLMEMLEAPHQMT

[3] = target: Nuclear receptor subfamily 2 group E member 1 (Homo sapiens) (UniProt Q9Y466); assay: Selectivity interaction (Reporter gene assay) EUB0001173a NR2E1; parameters: recommended concentration 1 uM
[4] = target: Steroidogenic factor 1 (Homo sapiens) (UniProt Q13285); assay: Selectivity interaction (Reporter gene assay) EUB0001173a NR5A1; parameters: recommended concentration 1 uM
[5] = target: T3, Oxysterols receptor LXR-beta (Homo sapiens) (UniProt P55055); assay: Selectivity interaction (Reporter gene assay) EUB0001173a NR1H2; parameters: recommended concentration 1 uM; details: screened at recom. conc., Selectivity number of off-targets 1.0, Selectivity number of targets 19.0, Source Knowledge inhouse
T3 sequence (whole entry): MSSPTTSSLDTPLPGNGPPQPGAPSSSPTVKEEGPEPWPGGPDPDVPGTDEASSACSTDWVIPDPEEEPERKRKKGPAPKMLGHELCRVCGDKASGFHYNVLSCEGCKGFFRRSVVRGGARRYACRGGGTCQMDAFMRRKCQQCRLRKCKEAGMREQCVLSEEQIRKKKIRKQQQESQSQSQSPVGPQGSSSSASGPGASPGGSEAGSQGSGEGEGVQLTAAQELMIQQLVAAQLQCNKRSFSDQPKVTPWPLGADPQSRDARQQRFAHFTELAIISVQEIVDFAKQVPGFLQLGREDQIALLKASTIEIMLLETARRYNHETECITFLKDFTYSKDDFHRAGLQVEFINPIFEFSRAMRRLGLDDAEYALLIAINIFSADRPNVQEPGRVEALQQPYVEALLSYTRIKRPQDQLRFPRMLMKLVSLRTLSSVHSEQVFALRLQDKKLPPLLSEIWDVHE

[6] = target: T4, Nuclear receptor subfamily 2 group C member 1 (Homo sapiens) (UniProt P13056); assay: Selectivity interaction (Reporter gene assay) EUB0001173a NR2C1; parameters: recommended concentration 1 uM
T4 sequence (whole entry): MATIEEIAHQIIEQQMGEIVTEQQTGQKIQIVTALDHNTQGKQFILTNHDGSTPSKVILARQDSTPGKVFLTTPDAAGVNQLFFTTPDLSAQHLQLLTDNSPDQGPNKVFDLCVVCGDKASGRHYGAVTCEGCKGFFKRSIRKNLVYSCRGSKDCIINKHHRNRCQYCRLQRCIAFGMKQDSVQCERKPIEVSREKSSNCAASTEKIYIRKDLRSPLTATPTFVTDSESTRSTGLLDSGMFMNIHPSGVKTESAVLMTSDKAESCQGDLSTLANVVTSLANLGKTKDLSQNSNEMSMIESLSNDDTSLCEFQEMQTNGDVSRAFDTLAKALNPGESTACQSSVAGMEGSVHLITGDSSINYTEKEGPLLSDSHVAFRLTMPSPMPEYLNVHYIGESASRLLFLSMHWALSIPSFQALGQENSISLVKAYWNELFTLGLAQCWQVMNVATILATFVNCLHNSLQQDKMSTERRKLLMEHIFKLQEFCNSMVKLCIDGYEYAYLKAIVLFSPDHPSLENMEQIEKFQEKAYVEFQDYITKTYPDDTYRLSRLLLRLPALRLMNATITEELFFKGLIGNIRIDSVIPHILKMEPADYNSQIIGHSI

[7] = target: T5, Alpha trans-inducing protein (Human alphaherpesvirus 1) (UniProt A0A5J6DW59); assay: Selectivity interaction (Reporter gene assay) EUB0001173a UL48; parameters: recommended concentration 1 uM
[8] = target: Nuclear receptor subfamily 4immunitygroup A member 1 (Homo sapiens) (UniProt P22736); assay: Selectivity interaction (Reporter gene assay) EUB0001173a NR4A1; parameters: recommended concentration 1 uM
[9] = target: Nuclear receptor subfamily 4immunitygroup A member 1 (Homo sapiens) (UniProt P22736); assay: Selectivity interaction (Reporter gene assay) EUB0001483aCl NR4A1; parameters: recommended concentration 10 uM
[10] = target: T4, Nuclear receptor subfamily 2 group C member 1 (Homo sapiens); assay: Selectivity interaction (Reporter gene assay) EUB0001483aCl NR2C1; parameters: recommended concentration 10 uM
[11] = target: T5, Alpha trans-inducing protein (Human alphaherpesvirus 1); assay: Selectivity interaction (Reporter gene assay) EUB0001483aCl UL48; parameters: recommended concentration 10 uM
[12] = target: T1, Hepatocyte nuclear factor 4-alpha (Homo sapiens); assay: Selectivity interaction (Reporter gene assay) EUB0001483aCl HNF4A; parameters: recommended concentration 10 uM
[13] = target: Nuclear receptor subfamily 2 group E member 1 (Homo sapiens) (UniProt Q9Y466); assay: Selectivity interaction (Reporter gene assay) EUB0001483aCl NR2E1; parameters: recommended concentration 10 uM
[14] = target: Steroidogenic factor 1 (Homo sapiens) (UniProt Q13285); assay: Selectivity interaction (Reporter gene assay) EUB0001483aCl NR5A1; parameters: recommended concentration 10 uM
[15] = target: T2, Retinoic acid receptor RXR-alpha (Homo sapiens); assay: Selectivity interaction (Reporter gene assay) EUB0001483aCl RXRA; parameters: recommended concentration 10 uM; details: reference bexarotene 1 uM, Selectivity number of off-targets 0.0, Selectivity number of targets 1.0, Source Knowledge inhouse
[16] = target: T5, Alpha trans-inducing protein (Human alphaherpesvirus 1); assay: Selectivity interaction (Reporter gene assay) EUB0001172a UL48; parameters: recommended concentration 1 uM
[17] = target: T2, Retinoic acid receptor RXR-alpha (Homo sapiens); assay: Selectivity interaction (Reporter gene assay) EUB0001170a RXRA; parameters: recommended concentration 1 uM; details: reference bexarotene 1 uM, Selectivity number of off-targets 0.0, Selectivity number of targets 1.0, Source Knowledge inhouse
[18] = target: T1, Hepatocyte nuclear factor 4-alpha (Homo sapiens); assay: Selectivity interaction (Reporter gene assay) EUB0001170a HNF4A; parameters: recommended concentration 1 uM
[19] = target: Steroidogenic factor 1 (Homo sapiens) (UniProt Q13285); assay: Selectivity interaction (Reporter gene assay) EUB0001170a NR5A1; parameters: recommended concentration 1 uM
[20] = target: T5, Alpha trans-inducing protein (Human alphaherpesvirus 1); assay: Selectivity interaction (Reporter gene assay) EUB0001170a UL48; parameters: recommended concentration 1 uM
[21] = target: Nuclear receptor subfamily 4immunitygroup A member 1 (Homo sapiens) (UniProt P22736); assay: Selectivity interaction (Reporter gene assay) EUB0001170a NR4A1; parameters: recommended concentration 1 uM
[22] = target: T4, Nuclear receptor subfamily 2 group C member 1 (Homo sapiens); assay: Selectivity interaction (Reporter gene assay) EUB0001170a NR2C1; parameters: recommended concentration 1 uM
[23] = target: Nuclear receptor subfamily 2 group E member 1 (Homo sapiens) (UniProt Q9Y466); assay: Selectivity interaction (Reporter gene assay) EUB0001170a NR2E1; parameters: recommended concentration 1 uM
[24] = target: DNA (cytosine-5)-methyltransferase 3B (Homo sapiens) (UniProt Q9UBC3); assay: (§1) Selectivity interaction (Enzymatic assay (human methyltransferases)) EUB0002223a DNMT3B; parameters: recommended concentration 1 uM; details: at 50 µM
[25] = target: DNA (cytosine-5)-methyltransferase 3A (Homo sapiens) (UniProt Q9Y6K1); details: at 50 µM
[26] = target: DNA (cytosine-5)-methyltransferase 3A (Homo sapiens) (UniProt Q9Y6K1); details: at 50 µM; remark: listed apart in the source
[27] = target: DNA (cytosine-5)-methyltransferase 3A (Homo sapiens) (UniProt Q9Y6K1); details: at 50 µM; remark: listed apart in the source
[28] = target: DNA (cytosine-5)-methyltransferase 3A (Homo sapiens) (UniProt Q9Y6K1); details: at 50 µM; remark: listed apart in the source
[29] = target: DNA (cytosine-5)-methyltransferase 3B (Homo sapiens) (UniProt Q9UBC3); assay: as §1; parameters: recommended concentration 1 uM; details: at 50 µM; remark: listed apart in the source
[30] = target: DNA (cytosine-5)-methyltransferase 3B (Homo sapiens) (UniProt Q9UBC3); assay: as §1; parameters: recommended concentration 1 uM; details: at 50 µM; remark: listed apart in the source
[31] = target: DNA (cytosine-5)-methyltransferase 3B (Homo sapiens) (UniProt Q9UBC3); assay: as §1; parameters: recommended concentration 1 uM; details: at 50 µM; remark: listed apart in the source

T5 sequence (A0A5J6DW59 as listed by the source): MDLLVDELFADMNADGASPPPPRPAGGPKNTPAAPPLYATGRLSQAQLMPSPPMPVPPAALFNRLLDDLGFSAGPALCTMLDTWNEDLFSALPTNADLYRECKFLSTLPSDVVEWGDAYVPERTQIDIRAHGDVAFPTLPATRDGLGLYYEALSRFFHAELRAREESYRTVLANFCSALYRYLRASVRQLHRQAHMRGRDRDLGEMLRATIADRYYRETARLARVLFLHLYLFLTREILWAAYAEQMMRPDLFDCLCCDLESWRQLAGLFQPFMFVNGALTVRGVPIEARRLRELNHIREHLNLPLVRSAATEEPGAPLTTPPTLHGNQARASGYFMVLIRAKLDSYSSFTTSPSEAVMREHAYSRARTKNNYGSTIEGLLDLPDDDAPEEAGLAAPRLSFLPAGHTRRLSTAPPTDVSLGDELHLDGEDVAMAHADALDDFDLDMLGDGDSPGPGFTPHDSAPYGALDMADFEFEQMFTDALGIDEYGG
Chain of DNA (cytosine-5)-methyltransferase 3A (Homo sapiens) (Q9Y6K1 whole entry, looked up): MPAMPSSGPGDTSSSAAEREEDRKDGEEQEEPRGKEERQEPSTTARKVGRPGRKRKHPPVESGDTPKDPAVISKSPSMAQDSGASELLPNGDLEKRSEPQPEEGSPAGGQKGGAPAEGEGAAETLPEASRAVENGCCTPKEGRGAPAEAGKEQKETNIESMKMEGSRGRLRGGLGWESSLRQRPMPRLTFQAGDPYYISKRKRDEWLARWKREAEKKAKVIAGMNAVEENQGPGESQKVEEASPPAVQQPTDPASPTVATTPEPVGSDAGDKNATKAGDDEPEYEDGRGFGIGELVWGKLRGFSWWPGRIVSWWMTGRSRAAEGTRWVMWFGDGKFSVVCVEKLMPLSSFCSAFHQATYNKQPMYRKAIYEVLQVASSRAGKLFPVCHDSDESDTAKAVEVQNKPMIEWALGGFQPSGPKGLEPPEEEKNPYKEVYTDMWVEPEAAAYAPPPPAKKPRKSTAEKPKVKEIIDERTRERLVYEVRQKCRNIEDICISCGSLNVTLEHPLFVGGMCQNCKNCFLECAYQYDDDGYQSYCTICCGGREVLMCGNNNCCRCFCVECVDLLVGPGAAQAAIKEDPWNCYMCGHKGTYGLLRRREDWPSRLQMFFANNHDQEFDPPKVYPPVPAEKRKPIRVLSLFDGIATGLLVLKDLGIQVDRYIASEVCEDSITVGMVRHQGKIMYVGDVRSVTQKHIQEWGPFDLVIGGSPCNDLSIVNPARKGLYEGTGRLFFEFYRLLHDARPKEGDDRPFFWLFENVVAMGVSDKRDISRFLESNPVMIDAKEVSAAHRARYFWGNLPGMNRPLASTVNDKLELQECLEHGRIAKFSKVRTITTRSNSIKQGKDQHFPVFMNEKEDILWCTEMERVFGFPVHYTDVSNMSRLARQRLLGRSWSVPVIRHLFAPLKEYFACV
Chain of Nuclear receptor subfamily 2 group E member 1 (Homo sapiens) (Q9Y466 whole entry): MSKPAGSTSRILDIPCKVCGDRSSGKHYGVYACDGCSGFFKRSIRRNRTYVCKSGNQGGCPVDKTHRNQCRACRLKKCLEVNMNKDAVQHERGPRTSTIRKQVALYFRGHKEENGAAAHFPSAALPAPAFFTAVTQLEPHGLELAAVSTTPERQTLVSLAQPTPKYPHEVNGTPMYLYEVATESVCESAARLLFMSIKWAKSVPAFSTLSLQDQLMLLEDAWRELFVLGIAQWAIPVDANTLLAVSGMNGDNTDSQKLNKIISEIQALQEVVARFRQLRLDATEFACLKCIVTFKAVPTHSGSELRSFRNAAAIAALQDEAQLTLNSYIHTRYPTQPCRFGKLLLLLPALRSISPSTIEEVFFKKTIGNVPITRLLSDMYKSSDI
Chain of Steroidogenic factor 1 (Homo sapiens) (Q13285 whole entry): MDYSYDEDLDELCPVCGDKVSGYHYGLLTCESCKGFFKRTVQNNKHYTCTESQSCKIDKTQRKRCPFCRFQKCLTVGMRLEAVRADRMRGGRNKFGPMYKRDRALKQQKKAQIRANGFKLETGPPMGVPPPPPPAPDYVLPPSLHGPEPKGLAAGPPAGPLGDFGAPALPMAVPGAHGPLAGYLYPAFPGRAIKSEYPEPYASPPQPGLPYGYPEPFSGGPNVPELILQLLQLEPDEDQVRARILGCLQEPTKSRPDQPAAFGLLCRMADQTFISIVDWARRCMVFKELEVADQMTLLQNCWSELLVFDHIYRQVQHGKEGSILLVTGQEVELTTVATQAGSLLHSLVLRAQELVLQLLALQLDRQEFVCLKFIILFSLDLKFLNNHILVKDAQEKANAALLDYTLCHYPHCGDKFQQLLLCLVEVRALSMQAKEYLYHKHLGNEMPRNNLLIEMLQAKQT
Chain of Nuclear receptor subfamily 4immunitygroup A member 1 (Homo sapiens) (P22736 whole entry): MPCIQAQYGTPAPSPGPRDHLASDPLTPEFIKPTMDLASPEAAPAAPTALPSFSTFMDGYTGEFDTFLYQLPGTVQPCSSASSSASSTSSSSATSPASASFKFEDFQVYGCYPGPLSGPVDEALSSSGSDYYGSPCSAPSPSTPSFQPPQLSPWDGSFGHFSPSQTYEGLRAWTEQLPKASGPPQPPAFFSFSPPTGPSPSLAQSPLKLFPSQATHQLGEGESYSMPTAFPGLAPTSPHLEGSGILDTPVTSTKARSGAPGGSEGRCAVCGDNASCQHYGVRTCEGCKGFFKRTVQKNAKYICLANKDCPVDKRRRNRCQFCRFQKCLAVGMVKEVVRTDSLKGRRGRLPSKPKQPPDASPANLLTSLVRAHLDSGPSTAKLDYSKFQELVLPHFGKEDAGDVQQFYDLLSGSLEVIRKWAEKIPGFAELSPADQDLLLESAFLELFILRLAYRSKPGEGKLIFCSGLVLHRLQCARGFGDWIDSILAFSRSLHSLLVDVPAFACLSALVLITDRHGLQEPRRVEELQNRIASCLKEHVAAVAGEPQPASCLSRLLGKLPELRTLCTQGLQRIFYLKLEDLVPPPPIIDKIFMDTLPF

- Fold activation [1]: 1.11
- Relative activation [2]: 0.539%
- Fold activation [3]: 1.08
- Fold activation [4]: 0.997
- Fold activation [5]: 5.89
- Fold activation [6]: 1.23
- P-value [7]: 1.58e-05
- Fold activation [8]: 1.01
SMILES: Cn1cc(C(=O)O)c2ccc(N3CCC(OCc4c(-c5c(Cl)cccc5Cl)noc4C4CC4)CC3)cc21

- Fold activation [9]: 1.35
- Fold activation [10]: 1.32
- P-value [11]: 7.2e-05
- Fold activation [12]: 1.03
- Fold activation [13]: 1.32
- Fold activation [14]: 1.5
- Relative activation [15]: 1.47%
SMILES: CN1CCN(c2ccc(/C=C(\C#N)c3ccccc3Br)cc2)CC1

- P-value [16]: 4.9e-12
SMILES: CC(C)(C[C@H]1CN(S(=O)(=O)c2cccc(C(F)(F)F)c2)c2cc(-c3cc(F)cc(OC(F)F)c3)ccc2O1)C(=O)O

- Relative activation [17]: 0.336%
- Fold activation [18]: 1.08
- Fold activation [19]: 1.12
- P-value [20]: 0.00111
- Fold activation [21]: 1.14
- Remaining activity [22]: 0.916
- Remaining activity [23]: 0.839
SMILES: CC(C)C(=O)N1CCC(c2cn(C)c3ncc(NC(=O)c4cccc(C#N)c4)c(C(F)(F)F)c23)CC1

- Enzyme activity [24]: 45%
- Enzyme activity [25]: 38%
- Enzyme activity [26]: 38%
- Enzyme activity [27]: 38%
- Enzyme activity [28]: 38%
- Enzyme activity [29]: 45%
- Enzyme activity [30]: 45%
- Enzyme activity [31]: 45%
SMILES: CCNC(=O)NCCSC[C@H]1O[C@@H](n2cnc3c(N)ncnc32)[C@H](O)[C@@H]1O

— ChEMBL document CHEMBL5715260, “Selectivity Literature for EUbOPEN Chemogenomic Library” (2024)
